Values of other authors as cited in patent US20070191933A1, “Reduction of restenosis” (priority 2005, published 2007).

Tested on: circulating T-cells
Conditions: FIG. 1

## alemtuzumab [Campath]
After a single dose
  time to full recovery of T-cells: ≥ 3 months
Single dose
  killing of circulating T-cells: kill all circulating T-cells
